This passage reports remaining binding results from article PMC6437697 (Journal of Medicinal Chemistry, 2019).

Molecules are shown by their SMILES.

Holding throughout (experiment): KINOMEscan
What all share (type): binding
What all share (details): read-out: % control activity remaining

The target in assay [1] is T1, CSK (Homo sapiens, UniProt P41240).
T1 construct: purchased Eurofins DiscoverX KINOMEscan

Assay [2] addresses T2, CSNK2A1 (Homo sapiens, UniProt P68400).
T2 construct: purchased Eurofins DiscoverX KINOMEscan

Assay [3] concerns the target T3, DRAK2 (Homo sapiens, UniProt O94768).
T3 construct: purchased Eurofins DiscoverX KINOMEscan
T3 sequence (O94768 1-372): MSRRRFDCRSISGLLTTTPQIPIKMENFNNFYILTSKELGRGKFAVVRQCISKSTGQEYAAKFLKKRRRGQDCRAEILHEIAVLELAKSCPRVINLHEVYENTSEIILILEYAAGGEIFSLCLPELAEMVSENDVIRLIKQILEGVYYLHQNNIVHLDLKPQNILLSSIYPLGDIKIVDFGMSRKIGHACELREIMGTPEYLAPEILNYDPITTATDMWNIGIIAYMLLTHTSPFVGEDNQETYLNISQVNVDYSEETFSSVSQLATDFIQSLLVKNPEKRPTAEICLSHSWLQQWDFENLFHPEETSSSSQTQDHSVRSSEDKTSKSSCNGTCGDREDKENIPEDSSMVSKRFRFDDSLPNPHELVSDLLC

Assay [4] concerns the target T4, EPHA3 (Homo sapiens, UniProt P29320).
T4 construct: purchased Eurofins DiscoverX KINOMEscan
T4 sequence (P29320 21-983): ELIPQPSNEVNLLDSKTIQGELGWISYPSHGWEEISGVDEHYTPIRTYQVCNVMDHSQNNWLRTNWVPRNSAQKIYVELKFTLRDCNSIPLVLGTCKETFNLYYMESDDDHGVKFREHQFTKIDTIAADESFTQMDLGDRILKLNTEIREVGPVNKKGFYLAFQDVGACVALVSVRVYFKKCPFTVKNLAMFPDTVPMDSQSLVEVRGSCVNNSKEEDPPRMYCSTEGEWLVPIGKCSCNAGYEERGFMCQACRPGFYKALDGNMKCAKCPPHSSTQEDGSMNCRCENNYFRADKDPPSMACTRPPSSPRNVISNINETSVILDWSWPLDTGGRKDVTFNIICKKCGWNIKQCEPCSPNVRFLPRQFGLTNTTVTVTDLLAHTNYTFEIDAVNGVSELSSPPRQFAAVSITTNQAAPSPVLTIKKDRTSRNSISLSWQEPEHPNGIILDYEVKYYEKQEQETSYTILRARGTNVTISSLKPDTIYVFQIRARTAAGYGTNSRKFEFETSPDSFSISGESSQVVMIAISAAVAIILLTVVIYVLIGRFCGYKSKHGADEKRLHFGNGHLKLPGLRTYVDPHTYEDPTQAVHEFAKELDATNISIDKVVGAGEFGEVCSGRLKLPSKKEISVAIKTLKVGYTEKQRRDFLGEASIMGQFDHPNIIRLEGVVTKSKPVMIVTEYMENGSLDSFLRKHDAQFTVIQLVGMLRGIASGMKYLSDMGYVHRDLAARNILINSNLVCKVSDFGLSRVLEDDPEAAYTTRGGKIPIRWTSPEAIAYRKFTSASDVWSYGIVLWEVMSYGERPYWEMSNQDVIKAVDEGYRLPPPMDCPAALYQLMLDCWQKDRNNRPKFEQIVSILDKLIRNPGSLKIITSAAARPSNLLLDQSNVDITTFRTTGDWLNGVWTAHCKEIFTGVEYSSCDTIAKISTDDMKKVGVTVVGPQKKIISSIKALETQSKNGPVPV

In assay [5] the target is T5, EPHA5 (Homo sapiens, UniProt P54756).
T5 construct: purchased Eurofins DiscoverX KINOMEscan

The target in assay [6] is T6, MRCKB (Homo sapiens, UniProt Q9Y5S2).
T6 construct: purchased Eurofins DiscoverX KINOMEscan

In assay [7] the target is T7, NEK5 (Homo sapiens, UniProt Q6P3R8).
T7 construct: purchased Eurofins DiscoverX KINOMEscan
T7 sequence (Q6P3R8 1-708): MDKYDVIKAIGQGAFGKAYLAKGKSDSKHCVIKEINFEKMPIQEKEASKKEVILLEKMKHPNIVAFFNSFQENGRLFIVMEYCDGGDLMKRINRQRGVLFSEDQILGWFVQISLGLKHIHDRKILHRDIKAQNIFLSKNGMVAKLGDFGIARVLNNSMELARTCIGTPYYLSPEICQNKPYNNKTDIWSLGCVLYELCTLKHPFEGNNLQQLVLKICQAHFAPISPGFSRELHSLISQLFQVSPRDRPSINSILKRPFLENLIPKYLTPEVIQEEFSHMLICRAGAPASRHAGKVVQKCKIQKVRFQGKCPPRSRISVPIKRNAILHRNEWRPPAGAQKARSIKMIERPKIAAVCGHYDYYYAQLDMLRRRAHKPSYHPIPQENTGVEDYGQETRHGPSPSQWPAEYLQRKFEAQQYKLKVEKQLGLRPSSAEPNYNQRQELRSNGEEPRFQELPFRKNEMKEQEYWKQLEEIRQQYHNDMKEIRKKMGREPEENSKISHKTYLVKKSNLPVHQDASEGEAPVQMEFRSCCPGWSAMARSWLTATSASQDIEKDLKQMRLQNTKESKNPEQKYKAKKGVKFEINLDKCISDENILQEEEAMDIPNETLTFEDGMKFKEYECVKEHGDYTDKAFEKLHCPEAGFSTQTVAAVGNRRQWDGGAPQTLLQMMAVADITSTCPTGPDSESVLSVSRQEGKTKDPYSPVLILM

Assay [8] deals with T8, PIK3CB (Homo sapiens, UniProt P42338).
T8 construct: purchased Eurofins DiscoverX KINOMEscan
T8 sequence (P42338 whole entry): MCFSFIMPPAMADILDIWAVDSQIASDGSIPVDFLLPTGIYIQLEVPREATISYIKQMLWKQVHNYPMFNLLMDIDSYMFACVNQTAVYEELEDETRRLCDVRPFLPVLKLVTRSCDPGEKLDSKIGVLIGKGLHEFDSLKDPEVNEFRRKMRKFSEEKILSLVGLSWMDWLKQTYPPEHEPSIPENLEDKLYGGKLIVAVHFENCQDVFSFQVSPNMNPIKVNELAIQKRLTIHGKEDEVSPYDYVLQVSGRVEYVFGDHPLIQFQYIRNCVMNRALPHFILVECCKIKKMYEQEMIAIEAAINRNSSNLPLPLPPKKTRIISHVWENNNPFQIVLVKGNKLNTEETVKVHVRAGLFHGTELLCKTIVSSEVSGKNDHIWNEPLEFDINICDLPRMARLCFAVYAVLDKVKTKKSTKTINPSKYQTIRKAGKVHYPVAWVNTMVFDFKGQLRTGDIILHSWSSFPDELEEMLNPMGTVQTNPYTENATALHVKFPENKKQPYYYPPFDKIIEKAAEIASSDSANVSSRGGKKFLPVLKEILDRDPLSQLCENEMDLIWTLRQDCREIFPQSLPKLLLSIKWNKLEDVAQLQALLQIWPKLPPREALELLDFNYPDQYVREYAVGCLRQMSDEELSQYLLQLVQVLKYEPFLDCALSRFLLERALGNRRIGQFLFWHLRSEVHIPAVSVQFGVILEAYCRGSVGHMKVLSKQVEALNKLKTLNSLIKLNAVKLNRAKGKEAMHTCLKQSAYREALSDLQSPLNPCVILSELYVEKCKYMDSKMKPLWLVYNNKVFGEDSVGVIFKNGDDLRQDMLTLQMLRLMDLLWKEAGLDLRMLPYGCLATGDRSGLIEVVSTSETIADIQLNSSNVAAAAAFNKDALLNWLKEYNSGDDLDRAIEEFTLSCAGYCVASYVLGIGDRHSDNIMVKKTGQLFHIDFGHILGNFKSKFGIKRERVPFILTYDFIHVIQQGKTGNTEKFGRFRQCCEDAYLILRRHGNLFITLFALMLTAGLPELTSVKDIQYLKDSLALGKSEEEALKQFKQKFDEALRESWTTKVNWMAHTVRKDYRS

T2 sequence (P68400 whole entry): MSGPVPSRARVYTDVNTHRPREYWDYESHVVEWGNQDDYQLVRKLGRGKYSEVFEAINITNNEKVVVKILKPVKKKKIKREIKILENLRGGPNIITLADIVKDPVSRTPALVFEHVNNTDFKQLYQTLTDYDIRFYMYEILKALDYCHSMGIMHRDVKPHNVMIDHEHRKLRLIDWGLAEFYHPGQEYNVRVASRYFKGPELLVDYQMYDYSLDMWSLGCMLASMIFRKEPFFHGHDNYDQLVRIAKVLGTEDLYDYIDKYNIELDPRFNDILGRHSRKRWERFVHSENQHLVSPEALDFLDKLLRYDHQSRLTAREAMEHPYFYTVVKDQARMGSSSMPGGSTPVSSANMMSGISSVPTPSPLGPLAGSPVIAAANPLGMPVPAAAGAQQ
T6 sequence (Q9Y5S2 whole entry): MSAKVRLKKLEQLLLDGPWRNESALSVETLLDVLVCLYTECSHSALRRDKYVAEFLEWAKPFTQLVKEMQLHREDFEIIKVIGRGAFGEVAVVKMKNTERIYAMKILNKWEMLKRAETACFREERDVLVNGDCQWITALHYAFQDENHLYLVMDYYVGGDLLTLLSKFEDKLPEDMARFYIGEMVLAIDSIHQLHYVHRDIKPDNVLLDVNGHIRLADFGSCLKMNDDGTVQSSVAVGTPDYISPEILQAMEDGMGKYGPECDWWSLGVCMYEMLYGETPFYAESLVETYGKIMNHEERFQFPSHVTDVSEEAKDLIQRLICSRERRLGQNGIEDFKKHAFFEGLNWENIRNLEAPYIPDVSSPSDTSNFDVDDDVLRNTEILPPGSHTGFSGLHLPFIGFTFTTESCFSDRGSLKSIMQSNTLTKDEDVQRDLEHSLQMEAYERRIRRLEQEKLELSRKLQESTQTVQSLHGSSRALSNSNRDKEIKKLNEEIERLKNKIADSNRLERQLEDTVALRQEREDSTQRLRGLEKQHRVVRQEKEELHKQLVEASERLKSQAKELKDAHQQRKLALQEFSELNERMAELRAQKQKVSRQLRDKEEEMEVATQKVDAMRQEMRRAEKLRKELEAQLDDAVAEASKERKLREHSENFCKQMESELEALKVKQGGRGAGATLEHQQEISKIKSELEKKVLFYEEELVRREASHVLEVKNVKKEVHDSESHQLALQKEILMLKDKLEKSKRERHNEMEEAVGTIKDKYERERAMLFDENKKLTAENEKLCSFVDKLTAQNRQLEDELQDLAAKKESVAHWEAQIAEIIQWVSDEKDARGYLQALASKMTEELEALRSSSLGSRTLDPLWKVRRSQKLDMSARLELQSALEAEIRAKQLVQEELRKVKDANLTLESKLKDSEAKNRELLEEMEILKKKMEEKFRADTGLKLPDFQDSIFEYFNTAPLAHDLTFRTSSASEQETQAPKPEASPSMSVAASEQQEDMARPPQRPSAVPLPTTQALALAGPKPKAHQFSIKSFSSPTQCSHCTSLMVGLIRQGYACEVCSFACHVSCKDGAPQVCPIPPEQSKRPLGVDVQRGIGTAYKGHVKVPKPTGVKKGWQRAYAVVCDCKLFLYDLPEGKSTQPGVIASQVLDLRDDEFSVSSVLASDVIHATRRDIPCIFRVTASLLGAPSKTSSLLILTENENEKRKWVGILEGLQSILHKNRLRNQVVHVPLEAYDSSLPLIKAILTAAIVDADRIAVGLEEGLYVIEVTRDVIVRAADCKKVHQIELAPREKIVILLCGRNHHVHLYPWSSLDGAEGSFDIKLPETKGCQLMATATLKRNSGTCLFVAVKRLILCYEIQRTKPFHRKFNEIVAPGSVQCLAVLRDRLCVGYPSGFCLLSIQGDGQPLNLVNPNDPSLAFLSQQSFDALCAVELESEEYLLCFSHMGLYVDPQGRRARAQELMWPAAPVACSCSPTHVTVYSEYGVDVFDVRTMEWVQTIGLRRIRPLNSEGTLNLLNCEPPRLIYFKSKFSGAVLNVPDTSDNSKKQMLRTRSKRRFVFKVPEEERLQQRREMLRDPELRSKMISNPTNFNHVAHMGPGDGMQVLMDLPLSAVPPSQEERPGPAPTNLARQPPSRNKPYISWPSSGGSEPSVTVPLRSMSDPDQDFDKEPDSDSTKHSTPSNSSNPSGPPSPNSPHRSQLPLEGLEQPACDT
T1 sequence (P41240 whole entry): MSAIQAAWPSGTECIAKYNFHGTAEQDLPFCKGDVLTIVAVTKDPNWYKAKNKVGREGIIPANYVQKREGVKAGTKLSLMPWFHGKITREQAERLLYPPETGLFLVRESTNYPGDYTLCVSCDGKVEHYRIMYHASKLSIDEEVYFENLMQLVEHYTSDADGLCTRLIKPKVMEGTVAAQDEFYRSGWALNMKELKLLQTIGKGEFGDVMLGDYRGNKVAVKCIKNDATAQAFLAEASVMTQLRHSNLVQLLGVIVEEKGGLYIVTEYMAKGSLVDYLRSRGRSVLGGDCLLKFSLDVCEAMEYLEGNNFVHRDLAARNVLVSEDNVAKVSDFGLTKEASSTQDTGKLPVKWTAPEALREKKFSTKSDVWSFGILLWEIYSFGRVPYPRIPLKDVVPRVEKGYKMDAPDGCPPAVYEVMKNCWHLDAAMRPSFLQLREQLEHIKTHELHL
T5 sequence (P54756 25-1037): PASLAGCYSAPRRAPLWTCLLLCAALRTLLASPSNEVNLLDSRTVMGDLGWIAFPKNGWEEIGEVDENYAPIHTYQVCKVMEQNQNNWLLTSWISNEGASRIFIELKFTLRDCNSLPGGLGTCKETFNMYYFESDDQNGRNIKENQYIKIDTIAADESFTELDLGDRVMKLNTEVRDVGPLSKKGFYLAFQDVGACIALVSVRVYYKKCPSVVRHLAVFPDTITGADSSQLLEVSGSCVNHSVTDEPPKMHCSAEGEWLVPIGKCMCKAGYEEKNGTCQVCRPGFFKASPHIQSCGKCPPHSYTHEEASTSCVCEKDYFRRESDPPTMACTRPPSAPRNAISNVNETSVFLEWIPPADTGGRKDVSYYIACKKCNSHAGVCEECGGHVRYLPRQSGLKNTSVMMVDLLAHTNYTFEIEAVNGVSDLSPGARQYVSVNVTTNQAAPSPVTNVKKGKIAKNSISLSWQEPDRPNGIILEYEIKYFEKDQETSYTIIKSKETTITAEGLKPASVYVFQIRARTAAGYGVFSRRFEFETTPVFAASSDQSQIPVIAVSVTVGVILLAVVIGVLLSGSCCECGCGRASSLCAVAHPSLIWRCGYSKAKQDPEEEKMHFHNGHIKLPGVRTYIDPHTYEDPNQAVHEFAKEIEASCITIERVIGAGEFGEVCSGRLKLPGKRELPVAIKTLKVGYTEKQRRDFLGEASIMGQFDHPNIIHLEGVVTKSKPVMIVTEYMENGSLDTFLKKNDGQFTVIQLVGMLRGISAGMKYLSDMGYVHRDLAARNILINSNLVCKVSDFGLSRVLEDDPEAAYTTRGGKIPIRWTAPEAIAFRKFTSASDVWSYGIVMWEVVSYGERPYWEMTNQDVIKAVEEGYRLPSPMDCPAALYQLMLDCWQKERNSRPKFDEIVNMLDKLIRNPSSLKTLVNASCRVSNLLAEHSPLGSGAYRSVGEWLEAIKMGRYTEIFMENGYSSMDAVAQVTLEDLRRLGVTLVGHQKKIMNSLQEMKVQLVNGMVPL

With `Clc1cc(NCC2CC2)c2ncc(-c3ccc4[nH]ncc4c3)n2n1` [compound 2, 6-Chloro-N-(cyclopropylmethyl)-3-(1H-indazol-5-yl)imidazo[1,2-b]pyridazin-8-amine], the remaining binding at 1 µM in assay [1] is 100%; in assay [2] it was 85%; in assay [3], 93%; in assay [4] it was 78%; in assay [5] it was 99%; in assay [6], 64%. Further, the remaining binding at 1 µM in assay [7] amounted to 93%; in assay [8], 82%.

Consider `O=C(CN1CCOCC1)N[C@H]1CC[C@H](Nc2cc(Cl)nn3c(-c4ccc5[nH]ncc5c4)cnc23)CC1` [compound 26], for which the remaining binding at 1 µM was 94% in assay [1]; 75% in assay [2]; 61% in assay [3]; 88% in assay [4]; 93% in assay [5]; 97% in assay [6]. Besides, the remaining binding at 1 µM in assay [7] was 86%; in assay [8], 93%.

For `CN1CCC(CNc2cc(Cl)nn3c(-c4cc5nc(Nc6ccccc6)[nH]c5cc4F)cnc23)CC1` [compound 31, 6-Chloro-3-(6-fluoro-2-(phenylamino)-1H-benzo[d]imidazol-5-yl)-N-((1-methylpiperidin-4-yl)methyl)imidazo[1,2-b]pyridazin-8-amine], the remaining binding at 1 µM in assay [1] was 98%; in assay [2], 99%; in assay [3], 92%; in assay [4] it was 100%; in assay [5] it was 99%; in assay [6], 100%. In addition, the remaining binding at 1 µM stood at 96% in assay [7] and 97% in assay [8].
